The text below walks through data of ChEMBL document CHEMBL1201862, “PubChem BioAssay data set” (2004).

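In this assay, cells in 96-well plates receive the compound at five concentrations for 48 hours. Endpoints are linearly interpolated between the surrounding concentrations. GI50 = concentration required for 50% inhibition of growth.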 Active and inactive are the calls of the source. Rule as the data show it: active = GI50 up to about 1.1 µM and inactive = higher. Some results are limits rather than exact numbers.

Some test systems named below: MDA-MB-231; UACC-62; OVCAR-8; SR; NCI-H460; SK-MEL-28; LOX IMVI; T47D; HT-29; TK-10; MCF7; SK-OV-3; SF-539; PC-3; A498; A549; MDA-MB-435; SK-MEL-5; RXF 393; OVCAR-3.
What all share (experiment): inhibition of tumour cell growth, NCI panel, 48 h

As for `O=C(Cc1ccccc1)NNc1nc(NNC(=O)c2ccncc2)nc(Nc2ccccc2)n1`, the GI50 in the assay with MDA-MB-231, in the assay with UACC-62, in the assay with OVCAR-8, with SR, with NCI-H460 and in the assay on SK-MEL-28 was > 10 µM (inactive) throughout. The GI50 in the assay on LOX IMVI, in the assay on T47D, with HT-29, in the assay with TK-10, in the assay on MCF7 and in the assay on SK-OV-3 was > 10 µM (inactive) each time. Besides, in the assay on SF-539, the GI50 is > 10 µM (inactive).
For `c1ccc(/N=c2/sc3ccccc3s/c2=N/c2ccccc2)cc1`, the GI50 is 12.8 µM (inactive) in the assay with PC-3; 2.33 µM (inactive) with A498; 2.54 µM (inactive) with A549; 2.21 µM (inactive) with MDA-MB-231; 1.36 µM (inactive) with UACC-62; 1.89 µM (inactive) in the assay on OVCAR-8. For the same compound, the GI50 in the assay with SR is 3.35 µM (inactive); with MDA-MB-435, 1.9 µM (inactive); in the assay with NCI-H460 it was 1.96 µM (inactive); with SK-MEL-5, 1.99 µM (inactive); in the assay with SK-MEL-28, 1.81 µM (inactive); with LOX IMVI, 1.7 µM (inactive). For the same compound, the GI50 with T47D is 1.65 µM (inactive); in the assay on HT-29, 2.08 µM (inactive); in the assay with TK-10, 4.08 µM (inactive); with SK-OV-3, 2.81 µM (inactive); with RXF 393 it was 1.82 µM (inactive); in the assay on SF-539, 1.88 µM (inactive).
For the compound `N#Cc1c2c(c(Nc3cccc(C(F)(F)F)c3)n3c1nc1ccccc13)CCC2`, the GI50 with A498, in the assay on MDA-MB-231, with OVCAR-8, in the assay with MDA-MB-435, in the assay on SK-MEL-5 and in the assay with SK-MEL-28 was > 100 µM (inactive) each time. In addition, the GI50 in the assay on LOX IMVI, with OVCAR-3, in the assay on T47D, in the assay with HT-29, with TK-10 and with SK-OV-3 was > 100 µM (inactive) throughout. Moreover, the GI50 with RXF 393 and with SF-539 was > 100 µM (inactive) each time.
For the compound `CC(=O)OC1[C@H](OC(C)=O)C2=C(C)[C@@H](OC(C)=O)C[C@@]2(C(C)(C)O)[C@@H](OC(C)=O)[C@H]2[C@@]1(C)[C@@H](OC(C)=O)CC(OC(C)=O)[C@]21CO1` (stereo partly drawn), the GI50 in the assay with PC-3, in the assay on A549, in the assay on UACC-62, in the assay on OVCAR-8, in the assay with SR and in the assay on MDA-MB-435 was > 100 µM (inactive) throughout. The GI50 in the assay with SK-MEL-5, with SK-MEL-28, with LOX IMVI, with OVCAR-3, in the assay on T47D and with HT-29 was > 100 µM (inactive) each time. In addition, the GI50 in the assay with TK-10, in the assay on MCF7, with SK-OV-3, with RXF 393 and in the assay on SF-539 was > 100 µM (inactive) each time.
Regarding `C=CCCCCOC1C=CC(OC(C)=O)C(COC(C)=O)O1` (stereo not drawn), the GI50 with PC-3, with A498, in the assay on A549, with MDA-MB-231, with UACC-62 and with OVCAR-8 was > 100 µM (inactive) each time. Besides, the GI50 in the assay on MDA-MB-435, in the assay on NCI-H460, in the assay on SK-MEL-5, with SK-MEL-28, in the assay with LOX IMVI and with OVCAR-3 was > 100 µM (inactive) throughout. Besides, the GI50 with T47D, in the assay with HT-29, with TK-10, in the assay on MCF7, with SK-OV-3 and in the assay with RXF 393 was > 100 µM (inactive) each time. Further, the GI50 in the assay on SF-539 is > 100 µM (inactive).
In the case of `Cc1nc(C)c(C(=O)NNC(N)=S)cc1C(=O)NNC(N)=S`, the GI50 in the assay on PC-3, with A549, in the assay with MDA-MB-231, in the assay on UACC-62, in the assay on OVCAR-8 and in the assay with MDA-MB-435 was > 100 µM (inactive) throughout. Moreover, the GI50 in the assay on NCI-H460, in the assay on SK-MEL-5, in the assay on SK-MEL-28, in the assay with LOX IMVI, in the assay with OVCAR-3 and in the assay on T47D was > 100 µM (inactive) each time. The GI50 with HT-29, in the assay with TK-10, in the assay with MCF7, in the assay with SK-OV-3, in the assay with RXF 393 and in the assay with SF-539 was > 100 µM (inactive) throughout.
On to `C[C@]12CC[C@H]3[C@@H](CC=C4C[C@@H](O)CC[C@@]43C)[C@@H]1CC[C@@H]2N(CCO)CCO`, for which the GI50 in the assay on PC-3 is 50.9 µM (inactive); in the assay on A498, 16.1 µM (inactive); in the assay with A549 it was 42 µM (inactive); in the assay with MDA-MB-231, > 100 µM (inactive); in the assay on UACC-62 it was 35.3 µM (inactive); with OVCAR-8 it was 88.5 µM (inactive). The GI50 in the assay on MDA-MB-435 is 85.9 µM (inactive); in the assay with NCI-H460, 33.2 µM (inactive); with SK-MEL-5, 63.5 µM (inactive); in the assay on SK-MEL-28, 96.2 µM (inactive); in the assay with LOX IMVI, 40.7 µM (inactive); with OVCAR-3, 34.8 µM (inactive). In addition, the GI50 is 86.3 µM (inactive) in the assay on T47D; 29 µM (inactive) in the assay on HT-29; 42.3 µM (inactive) in the assay on TK-10; 33.2 µM (inactive) with MCF7; 23.3 µM (inactive) in the assay on SK-OV-3; 36.1 µM (inactive) in the assay on RXF 393. The GI50 in the assay on SF-539 is 54.7 µM (inactive).
With `O=C(/C=C/c1ccc(Cl)cc1)c1nc2ccccc2[nH]1`, the GI50 is 19.9 µM (inactive) in the assay with PC-3; 37.8 µM (inactive) in the assay with A498; 25.4 µM (inactive) in the assay on A549; 23.1 µM (inactive) in the assay on MDA-MB-231; 35.9 µM (inactive) in the assay on UACC-62; 34.8 µM (inactive) in the assay with OVCAR-8. In addition, the GI50 in the assay on MDA-MB-435 was 12.2 µM (inactive); with NCI-H460, 53 µM (inactive); in the assay on SK-MEL-5, 40.2 µM (inactive); with SK-MEL-28 it was 32.4 µM (inactive); in the assay on LOX IMVI, 15.2 µM (inactive); with OVCAR-3, 12.9 µM (inactive). For the same compound, the GI50 is 5.78 µM (inactive) in the assay on T47D; 21.5 µM (inactive) with HT-29; 14.5 µM (inactive) with TK-10; 2.22 µM (inactive) in the assay with MCF7; 21.7 µM (inactive) with SK-OV-3; 6.98 µM (inactive) in the assay on SF-539.
As for `Oc1ncnc2c1nnn2CCCCCCCCCCCCn1nnc2c(O)ncnc21`, the GI50 in the assay with PC-3 is > 100 µM (inactive); in the assay on A498, 25.2 µM (inactive); in the assay on A549, 36.9 µM (inactive); with UACC-62, 36.9 µM (inactive); in the assay with OVCAR-8 it was 41.5 µM (inactive); in the assay on SR it was > 35.2 µM (inactive). The GI50 with MDA-MB-435 was > 100 µM (inactive); with NCI-H460 it was 51.8 µM (inactive); in the assay on SK-MEL-5, 19.8 µM (inactive); in the assay on SK-MEL-28, > 93.1 µM (inactive); in the assay with LOX IMVI, 45.8 µM (inactive); in the assay with OVCAR-3, 40.5 µM (inactive). In addition, the GI50 is 0.641 µM (active) in the assay with T47D; > 100 µM (inactive) in the assay with HT-29; 24.4 µM (inactive) in the assay with TK-10; 98.6 µM (inactive) in the assay with MCF7; 17.7 µM (inactive) with SK-OV-3; 24.3 µM (inactive) in the assay on RXF 393. The GI50 in the assay with SF-539 is 31.7 µM (inactive).
For `C(=N\NC1=NCCCN1)/c1ccc(-c2cn3cc(/C=N/NC4=NCCCN4)ccc3n2)cc1`, the GI50 in the assay on PC-3 is > 40.1 µM (inactive); in the assay with A498, > 41.7 µM (inactive); in the assay on A549, 24.6 µM (inactive); in the assay with MDA-MB-231, > 72.6 µM (inactive); in the assay on UACC-62, > 100 µM (inactive); in the assay on OVCAR-8 it was > 50.2 µM (inactive). Besides, the GI50 was > 100 µM (inactive) in the assay with MDA-MB-435; 7.23 µM (inactive) in the assay with NCI-H460; > 100 µM (inactive) in the assay on SK-MEL-5; > 100 µM (inactive) in the assay with SK-MEL-28; > 100 µM (inactive) in the assay with LOX IMVI; > 100 µM (inactive) in the assay on OVCAR-3. Further, the GI50 was > 100 µM (inactive) in the assay with T47D; 29.3 µM (inactive) in the assay on HT-29; > 100 µM (inactive) with TK-10; 32 µM (inactive) with MCF7; > 100 µM (inactive) in the assay with SK-OV-3; 61.1 µM (inactive) in the assay on RXF 393. In the assay on SF-539, the GI50 was > 61.7 µM (inactive).
`Oc1ccc(NCc2cc(O)ccc2O)cc1`: the GI50 is 14.9 µM (inactive) in the assay on PC-3; 28.4 µM (inactive) in the assay with A498; 53.1 µM (inactive) in the assay on A549; 13.2 µM (inactive) in the assay with MDA-MB-231; 15.4 µM (inactive) in the assay on UACC-62; 25.8 µM (inactive) with OVCAR-8. The GI50 with MDA-MB-435 is 16.4 µM (inactive); with NCI-H460, 18.5 µM (inactive); in the assay on SK-MEL-5, 16.9 µM (inactive); in the assay with SK-MEL-28 it was 22.3 µM (inactive); in the assay with LOX IMVI, 17.1 µM (inactive); with OVCAR-3 it was 17.3 µM (inactive). The GI50 in the assay with T47D was 19.6 µM (inactive); in the assay with HT-29, 22.6 µM (inactive); in the assay with TK-10, 16 µM (inactive); with MCF7 it was 13.9 µM (inactive); with SK-OV-3 it was 17.8 µM (inactive); in the assay with RXF 393, 15.3 µM (inactive). The GI50 with SF-539 is 23.2 µM (inactive).
